# Key:
# [1] = target: T1, 5HT transporter (r5HT Uptk) (Rattus norvegicus, UniProt P31652); test: Binding at native 5HT transporter; details: Table 8
# T1 construct: native, tissue-derived transporters; from tissue
# Experimental: (§1) The binding properties of the compounds of the present invention were evaluated at one or more cloned receptors or native, tissue-derived transporters, using protocols described below.
# (§2) The methods to determine binding affinity at native transporters are described in the following publications: 5HT transporter and NE transporter (Owens et al., 1997), and DA transporter (Javitch et al, 1984).
# [2] = target: NE transporter (rNE Uptk) (Rattus norvegicus, UniProt Q9WTR4); test: Binding at native NE transporter; details: Table 7, native transporter
# Experimental: as §1, §2
# [3] = system: NE transporter (rNE Uptk); test: Binding at native NE transporter; parameters: species or system rat; details: Table 8
# Experimental: as §1, §2
# [4] = target: T2, human α2B adrenoceptor (Homo sapiens, UniProt P18089); test: α2B adrenergic receptor binding; details: Table 10
# T2 construct: expressed in transfected cells
# Text: (§3) Other receptors: Cell membranes expressing human dopamine D1, D2, D4 and rat D3 receptors were purchased through BioSignal, Inc. (Montreal, Canada). Binding assays using the histamine H, receptor; dopamine receptors; and α1A, α1B, and α2 adrenergic receptors may be carried out according to the procedures described in U.S. Pat. No. 5,780,485, the disclosure of which is hereby incorporated by reference in its entirety into this application. Binding assays using the dopamine D5 receptor may be carried out according to the procedures described in U.S. Pat. No. 5,882,855, the disclosure of which is hereby incorporated by reference in its entirety into this application. Binding assays for the human α1D adrenergic receptor may be carried out according to the procedures described in U.S. Pat. No. 6,156,518, the disclosure of which is hereby incorporated by reference in its entirety into this application.
# [5] = target: T3, human dopamine D4 receptor (Homo sapiens, UniProt P21917); test: Dopamine D4 receptor binding; details: Table 10
# T3 construct: purchased BioSignal, Inc. (Montreal, Canada)
# Text: as §3
# [6] = system: neuropathic rats (chronic constriction nerve injury); test: Chronic constriction nerve injury model of neuropathic pain: mechanical allodynia (Von Frey filaments); format: in vivo, rat; details: for effect on withdrawal threshold of the nerve-injured hind paw (Von Frey) vs vehicle / withdrawal threshold of the nerve-injured paw to Von Frey filament challenges: 30 mg/kg i.p.; for withdrawal threshold of the nerve-injured paw to Von Frey filament challenges: Day 12 PO
# Experimental: The aim of this study was to assess the potential analgesic effects of Example 92 following intraperitoneal administration at the doses of 3, 10 and 30 mg/kg, respectively, in an animal model of neuropathic pain. A peripheral mononeuropathy was induced in the right hind limb of rats following a chronic constriction nerve injury (Bennett and Xie, 1988), and the development of mechanical allodynia and thermal hyperalgesia was monitored using established behavioral tests (Attal, N., et al., 1990; Hargreaves, K., et al., 1988).
# Male Sprague-Dawley rats within the weight range of 200-225 g, and approximate age 7-9 weeks, were allowed to acclimate for a minimum of 6 days prior to the start of the behavioral testing.
# All rats underwent a chronic constriction nerve injury, and of these, those that successfully developed allodynia and hyperalgesia were allocated to treatment groups.
# There were 5 separate treatment groups (with a minimum of 10 rats per group). The treatment groups were as follows: • Group C received Morphine at 10 mg/kg (n=10) • Group D received Vehicle for Example 92* at 1 ml/kg (n=10) (* 100% DMSO) • Group E received Example 92 at 30 mg/kg (n=10) • Group F received Example 92 at 3 mg/kg (n=10) • Group G received Example 92 at 10 mg/kg (n=10)
# The dose volume for all treatments was 1 ml/kg. Each rat received a single i.p. dose of the test substance, reference substance or vehicle on Day 12 PO. Test substance and vehicle dosing solutions were encoded (C-G) so that the observers were unaware of the identity of the treatment groups.
# The behavioral tests (Von Frey filament and Thermal Plantar Tests—see below) were performed on all rats on 3 separate days prior to […], to establish baseline values. The pre-surgery baseline values were calculated as the mean of the last 2 days testing (the data from the first day of testing were not included as this was classed as part of the acclimating period). The sequence of tests was always mechanical allodynia (Von Frey Test) followed by thermal hyperalgesia (Thermal Plantar Test), with a minimum 5 min period allowed between the 2 tests.
# Each animal was placed in a wire mesh cage and a series of Von Frey filaments (ranging from filament handle number 3.61 to 6.10) applied to the plantar surface of the hind paw, from below. The filaments were applied in ascending order (starting with the weakest force) and the withdrawal threshold for both the ipsilateral and contralateral hind paws was evaluated. Each filament was indented on the plantar surface of the foot to the point where it just started to bend, and this was repeated approximately 8-10 times per filament at a frequency of approximately 1 Hz. The withdrawal threshold was defined as the lowest force of two or more consecutive Von Frey filaments to elicit a reflex withdrawal response.
# The animals were surgically prepared over 5 days. Each rat was anaesthetized with sodium pentobarbitone (60 mg/ml; 0.6 ml/kg dose, intraperitonealy; batch number 00230; expiry date 22 May 3) and then supplemented as necessary with isoflurane (1-3% in oxygen). The surface around the incision site was shaved and then sterilized with surgical spirit. Under aseptic conditions the right sciatic nerve was exposed by blunt dissection at mid-thigh level and approximately 1 cm of nerve was freed of adhering connective tissue. Four chromic cat gut (4.0) ligatures, spaced at approximately 1 mm inzervals, were then tied so as to barely constrict the nerve (as viewed under 40× magnification) to induce a peripheral mononeuropathy in the right hind limb. The overlying muscle and skin were then closed in layers using suture material, and the anesthesia discontinued. On recovery from anesthesia, the rats were re-housed with their cage mates on soft padded bedding overnight (to reduce the risk of infection) and subsequently on sawdust bedding following full recovery. The animals were allowed 4 full days to recover before the behavioral testing was recommenced. […]
# T3 sequence (P21917 whole entry): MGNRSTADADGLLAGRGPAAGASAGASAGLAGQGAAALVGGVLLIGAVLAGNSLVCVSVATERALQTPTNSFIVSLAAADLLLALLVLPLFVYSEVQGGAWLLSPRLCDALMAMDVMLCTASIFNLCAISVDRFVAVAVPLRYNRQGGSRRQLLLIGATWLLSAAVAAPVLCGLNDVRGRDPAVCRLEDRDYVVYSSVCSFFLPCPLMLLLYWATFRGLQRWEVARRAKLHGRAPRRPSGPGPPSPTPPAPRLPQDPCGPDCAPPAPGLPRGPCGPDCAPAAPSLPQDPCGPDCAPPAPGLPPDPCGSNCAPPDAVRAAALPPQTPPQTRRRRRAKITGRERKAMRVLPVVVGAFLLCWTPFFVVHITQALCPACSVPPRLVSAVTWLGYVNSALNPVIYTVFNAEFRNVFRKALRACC
# T2 sequence (P18089 whole entry): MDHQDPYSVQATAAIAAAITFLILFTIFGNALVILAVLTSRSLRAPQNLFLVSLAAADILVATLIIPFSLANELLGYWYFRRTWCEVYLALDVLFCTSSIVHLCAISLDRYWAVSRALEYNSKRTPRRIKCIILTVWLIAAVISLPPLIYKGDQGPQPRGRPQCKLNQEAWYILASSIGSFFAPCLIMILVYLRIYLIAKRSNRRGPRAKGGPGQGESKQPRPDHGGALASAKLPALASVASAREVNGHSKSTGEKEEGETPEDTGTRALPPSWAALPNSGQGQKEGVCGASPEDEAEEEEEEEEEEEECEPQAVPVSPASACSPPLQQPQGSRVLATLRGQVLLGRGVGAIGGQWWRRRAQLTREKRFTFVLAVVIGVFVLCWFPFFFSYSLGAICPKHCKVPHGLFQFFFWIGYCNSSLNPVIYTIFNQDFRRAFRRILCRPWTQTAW
# T1 sequence (P31652 whole entry): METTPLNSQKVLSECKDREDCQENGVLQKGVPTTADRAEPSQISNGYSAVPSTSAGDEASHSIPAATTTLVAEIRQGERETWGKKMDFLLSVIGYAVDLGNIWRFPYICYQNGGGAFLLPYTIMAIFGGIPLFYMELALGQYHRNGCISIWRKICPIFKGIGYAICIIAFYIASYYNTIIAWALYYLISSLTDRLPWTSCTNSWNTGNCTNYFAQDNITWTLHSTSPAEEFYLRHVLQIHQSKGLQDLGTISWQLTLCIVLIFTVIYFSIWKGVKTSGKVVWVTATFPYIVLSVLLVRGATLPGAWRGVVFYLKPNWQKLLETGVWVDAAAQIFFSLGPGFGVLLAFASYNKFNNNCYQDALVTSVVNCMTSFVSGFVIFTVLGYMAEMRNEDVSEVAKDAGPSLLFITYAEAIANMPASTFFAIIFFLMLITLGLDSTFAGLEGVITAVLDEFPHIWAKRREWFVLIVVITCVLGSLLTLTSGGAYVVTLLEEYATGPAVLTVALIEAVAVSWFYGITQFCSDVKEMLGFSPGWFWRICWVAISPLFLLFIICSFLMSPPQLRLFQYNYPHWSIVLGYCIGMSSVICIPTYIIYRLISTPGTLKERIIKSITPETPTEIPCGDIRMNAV
compound,measurement,setting,value
"O=C1C(=Nc2cccc(C(F)(F)F)c2)c2ccccc2N1c1ccccc1 [Example 92, 1-PHENYL-3-[[3-(TRIFLUOROMETHYL)PHENYL]IMINO]-1,3-DIHYDRO-2H-INDOL-2-ONE]",selectivity ratio r5HT Uptk (Ki r5HT Uptk / Ki hGAL3),[1],>100
same,Ki,[2],33.9 µM
same,selectivity ratio rNE Uptk (Ki rNE Uptk / Ki hGAL3),[3],>100
same,selectivity ratio hα2B (Ki hα2B / Ki hGAL3),[4],>100
same,selectivity ratio hD4 (Ki hD4 / Ki hGAL3),[5],>100
same,effect on withdrawal threshold of the nerve-injured hind paw (Von Frey) vs vehicle,[6]; 30 min PD,significantly increased
same,withdrawal threshold of the nerve-injured paw to Von Frey filament challenges,"[6]; 30 min PD, vehicle 4.82±2.77 g, P≦0.05",25.98 ± 8.25 g
same,effect on withdrawal threshold of the nerve-injured hind paw (Von Frey) vs vehicle,[6]; 90 min PD,not found to be significant
same,withdrawal threshold of the nerve-injured paw to Von Frey filament challenges,"[6]; 90 min PD, vehicle 2.43±1.48 g",11.73 ± 6.43 g
same,responses of the uninjured (contralateral) left paw (Von Frey) vs vehicle,"[6]; 3, 10, 30 mg/kg i.p., any time point",No significant changes
same,effect on withdrawal threshold of the nerve-injured paw (Von Frey) vs vehicle,"[6]; 3 or 10 mg/kg i.p., any time point",no significant effect

# Reference: US7220775B2, “Compound useful for the treatment of neuropathic pain” (H. Lundbeck A/S, priority 2002, dated 2007)
